This note sets out measurements from US9101566B2, “Fermentation product of cereal plant-derived material and immunomodulator” (KIRIN HOLDINGS KABUSHIKI KAISHA, priority 2009, dated 2015).

What all share (format): cell-based
Assay [1] has as its system human DCs from peripheral blood CD14-positive cells. Kind of assay: Human regulatory DC-inducing activity of 14-DHE (Example 16). The conditions noted are these: 14-DHE 1, 3 or 10 μM; ergosterol 10 μM; LPS/IFN-γ or cytokine cocktail 24 h. On the procedure:
Mononuclear cells were prepared from human peripheral blood by density-gradient centrifugation using Ficoll-Paque (GE Healthcare, Japan). These cells were subjected to positive selection using anti-human CD14 MACS beads (Miltenyi Biotec), so that CD14-positive cells were obtained. CD14-positive cells were cultured in RPMI1640 media (containing 10% FBS (Invitrogen), 50 μmol/L 2-mercaptoethanol (Wako Pure Chemical Industries, Japan), 50 U/mL penicillin, and 50 μg/mL streptomycin (Gibco) (Sigma Aldrich)) supplemented with recombinant human GM-CSF (800 U/mL, Leukine, Berlex) and recombinant human IL-4 (100 ng/mL, Peprotech). During culture, medium exchange was performed once every 2 days. On day 7 of culture, 14-DHE was added at a concentration of 1 μM, 3 μM, or 10 μM. To a control, 10 μM ergosterol, which was a related substance, was added. Also, to a negative control, 1% ethanol, which was a solvent for 14-DHE, was added. The cells were recovered on day 8 of culture, counted, and then suspended at a density of 3×10^5 cells/mL in the above media. To cell suspensions, 1 μg/mL LPS and 100 ng/mL IFN-γ (both, Sigma Aldrich), or cytokine cocktail (1 μg/mL PGE2 (Sigma Aldrich), 10 ng/mL TNF-α, 2 μg/mL IL-6, and 10 ng/mL IL-1β (3 (all, BD Bioscience)) were added, followed by 24-hour culture. After culture, the cells were stained for CD86, HLA-DR, and CD80. Antibodies used were all produced by BD Bioscience. The gate of DCs was set by FSC and SSC, and the expression levels of these cell surface markers were analyzed.

For assay [2], the system named is dendritic cells induced from C57BL/6 mouse bone marrow cells with Flt-3L (mDCs, CD11c+CD11b+). In words: Regulatory DC-inducing activity of 14-dehydroergosterol (Example 9). On the procedure: Regulatory DC induction activity was evaluated for 14-dehydroergosterol (14-DHE) isolated and purified from wheat bran fermented with koji as described above and subjected to structural determination. As controls, ergosterol (Wako Pure Chemical Industries, Japan) and 9(11)-dehydroergosterol (9(11)-DHE) (Sigma-Aldrich Corp.), which are ergosterol-related substances, were used. Also, as conjugated linoleic acid (CLA) that was reported in connection with the inhibition of DC activation in the past, CLA (9Z, 11E) and CLA (10E, 12Z) (both, Cayman Chemical), and linoleic acid (Wako Pure Chemical Industries, Japan) were also subjected to activity determination (J. Immunol., 175(8): 4990-8, Oct. 15, 2005). As negative controls, a sample (none) to which no compound had been administered and a sample (ctrl) to which only LPS had been administered were also subjected to activity determination.
In a manner similar to Example 2, bone marrow cells were prepared from C57BL/6 mouse thigh bone, and then dendritic cells were induced using Flt-3L. Each test substance was added simultaneously with the initiation of culture at a concentration of 1 μM, 5 μM, or 10 μM. Seven days later, LPS (from Salmonella typhosa) (Sigma-Aldrich Corp.) was added at 5 ng/mL and then 24 hours later the cells were recovered. Subsequently, the cells were stained for the following cell markers and then subjected to flow cytometry analysis. All antibodies used were produced by Becton, Dickinson and Company. CD11c^+CD11b^+ was set as a gate for mDCs and then the expression levels of CD40, CD80, CD86, I-A/I-E, and ICOS-L were measured. Also, IL-12p40 and IL-10 in culture supernatants were measured by ELISA.

Assay [3] deals with DCs induced from C57BL/6 mouse bone marrow cells with Flt-3L. Kind of assay: Comparison with known regulatory DC-inducing agents, DC induction system using Flt-3L (Example 3). The conditions noted are these: Flt-3L system, extract and γ-oryzanol 50 μg/mL, LPS 1 ng/mL. The protocol:
(§1) The hexane fraction (No. 8) (in Table 1) prepared in Example 1 from wheat bran fermented with koji was used for the test. Since GM-CSF is used as a DC-inducing agent in the above-mentioned reports concerning rapamycin and IL-10/TGF-β, DCs were induced in each system of GM-CSF and Flt-3L and then each regulatory DC-inducing agent was evaluated.
In a manner similar to the experimental method in Example 2, bone marrow cells were prepared from C57BL/6 mouse thigh bone, the cells were suspended at 1×10^6 cells/mL in a medium, and then Flt-3L was added at 100 ng/mL. An extract from wheat bran fermented with koji, γ-oryzanol (Wako Pure Chemical Industries, Japan), or IL-10/TGF-β (produced by R&D systems and Peprotech, respectively) were added at 50 μg/mL for the former two or at 20 ng/mL for the latter two on day 0 after the initiation of culture. Rapamycin (Wako Pure Chemical Industries, Japan) was added at 10 ng/mL on day 3 after the initiation of culture. Culture was performed for 7 days and, at the time point of the last 24 hours of culture, LPS was added in a final concentration of 1 ng/mL.
Regarding an evaluation method, expression intensities of the cell-surface DC activation markers CD40, CD86 and MHCII and the suppression marker PD1L were evaluated by analysis using a flow cytometer. A gate was set on mDCs similarly to Example 1 and then analysis was conducted. Staining was performed using anti-CD11c-APC, anti-CD11b-APC-Cy7, anti-B220-PerCP, anti-CD40-FITC and anti-CD86-PE, or anti-CD11c-APC, anti-CD11b-APC-Cy7, anti-B220-PerCP, anti-MHCII-FITC, and anti-PD1L-PE (all available from Becton, Dickinson and Company) and then analysis was conducted.

The subject of assay [4] is DCs induced from C57BL/6 mouse bone marrow cells with GM-CSF. Kind of assay: Comparison with known regulatory DC-inducing agents, DC induction system using GM-CSF (Example 3). Conditions: 50 μg/mL. The protocol:
as §1
In a manner similar to the experimental method in […], bone marrow cells were prepared from C57BL/6 mouse thigh bone, the cells were suspended at a concentration of 2×10^5 cells/mL in a medium, and then 20 ng/ml GM-CSF (R&D systems) was added. The concentration and timing of the added test substance were similar to those in the above examples.
Regarding an evaluation method, expression intensities of the cell-surface DC activation markers CD40, CD86 and MHCII and the suppression marker PD1L were evaluated by analysis using a flow cytometer. In the case of the DC induction using GM-CSF, only mDC was generated. As in the case of Flt-3L, a gate was set on mDCs defined by CD11c^+CD11b^+B220^− and then analysis was conducted.

Regarding `CC(C)[C@@H](C)/C=C/[C@@H](C)[C@H]1CC[C@H]2C3=CC=C4C[C@@H](O)CC[C@]4(C)[C@H]3CC[C@]12C` [Ergosterol, ergosterol, reference compound], in assay [1], the “expression level of CD80 on human DCs” value is on record as “did not affect”, the “expression level of CD86 on human DCs” value was “did not affect” and the “expression level of MHC class II molecule HLA-DR on human DCs” value is “did not affect”.
As for `CC(C)[C@@H](C)C=C[C@@H](C)[C@H]1CC[C@H]2C3=CC=C4C[C@@H](O)CC[C@]4(C)C3=CC[C@]12C` [9(11)-DHE, 9(11)-dehydroergosterol, reference compound], the “expression of inflammatory cytokine IL-12p40 (ELISA)” value in assay [2] (1, 5 or 10 μM, LPS 5 ng/mL, culture supernatant) is “a slight decrease was observed”. In assay [2] (maximum concentration (10 μM), LPS 5 ng/mL 24 h), the “expression levels of I-A/I-E, CD40, CD80 and CD86” value is recorded as “slight decrease”.
On to γ-oryzanol, for which the “MHCII expression in response to LPS stimulation” value in assay [3] is “no fluctuation was observed”. In assay [3] (rapamycin 10 ng/mL from day 3), the “CD40 expression in response to LPS stimulation” value was “no fluctuation was observed” and the “CD86 expression in response to LPS stimulation” value was “no fluctuation was observed”. For the same molecule, the “expression of DC activation markers in response to LPS stimulation” value in assay [4] was “strong increases were observed”.
